Test results taken from patent publication US4530836A, “Peptide” (Amano Pharmaceutical Co., Ltd., priority 1983, dated 1985).
Read-outs that look alike come from different tables or passages of the source. Starred links: 1 amine or outer side, 2 acyl side, 3 side chain; linkers in the order of their positions; H or OH if unused. Non-standard residues stand in square brackets, D forms with d. Residues, ends and D or L forms follow the SMILES beside them. sY = N[C@@H](Cc1ccc(OS(=O)(=O)O)cc1)C(=O)O; Glutaryl = O=C(CCCC(=O)[*:2])[*:1]; pGlu = O=C1CC[C@@H](C(=O)O)N1; Suc = O=C(CCC(=O)[*:2])[*:1]

What was measured:
[1] = system: gallbladder; assay type: in vivo, guinea pig; settings: for Gallbladder contracting activity (in words): compared with CCK-8
Description: This test was in accordance with the method of G. Bertaccini et al. [Br. J. Pharmacol., 34, 291-310 (1968)].
Male Hartley guinea pigs (weighing 400-600 g) was anesthetized with urethane and fixed at the supine position. After laparotomy, the top of the gallbladder was clamped with a Serre-fine which was connected to a FD pickup (model: SB-IT, NIHON KOHDEN KOGYO Co., Ltd.), and the contraction was recorded on a recorder (model: PJB-3012, made by the above company) through a preamplifier (model: RUP-25, made by the above company). A standard solution and the invented peptide solutions were injected into the jugular vein, and the relative potency was determined from the peak height of the gallbladder contraction.

[2] = system: pancreatic external secretion; test: Acceleration of pancreatic external secretion (method of Dockray), i.v. in rats, compared with CCK-8; assay type: in vivo, rat; settings: male Wistar rats, 30 minutes after administration
Description: This test was conducted in accordance with the method of Dockray [J. Physiol., 225, 679-692 (1972)]. Male Wistar rats (weighing about 280 g) were deprived for 24 hours and under anesthesia the gastric pylorus and the duodenal side end of the common hepatic duct were ligated. A canula for collection of pancreatic juice was inserted into the duct in the retrograde fashion. The bile was led into the duodenum. Varying concentrations of the control solution (CCK-8 solution) and solutions of the invented peptides in a volume of 50 μl were administered intravenously every one hour, thus determining the increment in the secretion rate of the pancreatic juice and protein during 30 minutes after administration, wherein the amount of the whole protein secreted was determined from the ultraviolet absorbance at 280 nm of the pancreatic juice secreted.

[3] = system: gastric acid secretion; test: Gastric acid secretion accelerating activity in Shay rats; assay type: in vivo, rat; settings: pylorus-ligated male Wistar rats, i.v., gastric juice 2 hours after administration; tetragastrin = 1.0
Description: This test was conducted with Shay rats [H, Shay et al., Gastroenterology, 5, 43 (1945)] prepared. Employing male Wistar rats (weighing 270-310 g) deprived for 24 hours, the gastric pylorus was ligated under ether-anesthesia. Immediately thereafter, the invented peptides and tetragastrin as a control were administered intravenously. Gastric juice was withdrawn 2 hours after administration, and its amount and the total amount of acid secreted were measured to determine the relative potency based on tetragastrin.

[4] = system: pancreatic external secretion; test: Pancreatic external secretion accelerating activity (protein secretion), compared with tetragastrin; assay type: in vivo, rat; settings: rats, i.v., increment in protein secretion rate during 30 minutes (UV 280 nm); tetragastrin = 1.0
Description: This test was conducted in accordance with the method of Dockray [J. Physiol., 225, 679-692 (1972)]. Male Wistar rats (weighing about 280 g) were deprived for 24 hours and under anesthesia the gastric pylorus and the duodenal side end of the common hepatic duct were ligated. A canula for collection of pancreatic juice was inserted into the duct in the retrograde fashion. The bile was led into the duodenum. […] The test was conducted in the same manner as stated already. The increment in the secretion rate of the protein in the pancreatic during 30 minutes after administration of the test solution was determined from the ultraviolet absorbance at 280 nm of the pancreatic juice. The found values were compared with that of tetragastrin.

[5] = male Hartley guinea pigs, injection into jugular vein, from peak height of gallbladder contraction, CCK-8 = 100

Molecule	Gallbladder contracting activity (in words) ([1]; guinea pig)	Gallbladder contracting activity, relative potency ([1]; guinea pig, in vivo)	Increased amount of the pancreatic juice secreted (in words) [2]	Gastric acid secretion accelerating activity, relative potency [3]	Pancreatic external secretion accelerating activity, relative potency [4]	Gallbladder contracting activity, relative potency [1, 5]
CSCC[C@H](NC(=O)[C@H](Cc1c[nH]c2ccccc12)NC(=O)[C@@H](Cc1c[nH]c2ccccc12)NC(=O)[C@H](CCSC)NC(=O)[C@H](Cc1ccc(OS(=O)(=O)O)cc1)NC(=O)CCC(=O)O)C(=O)N[C@@H](CC(=O)O)C(=O)N[C@@H](Cc1ccccc1)C(N)=O [Compound IV, Suc-Tyr(SO3 H)-Met-D-Trp-Trp-Met-Asp-Phe-NH2] (Suc-[sY]M[dW]WMDF-NH2)	mild	5.0	comparable to that of CCK-8			
CSCC[C@H](NC(=O)[C@H](Cc1ccc(OS(=O)(=O)O)cc1)NC(=O)[C@H](CC(=O)O)NC(=O)CCN)C(=O)NCC(=O)N[C@@H](Cc1c[nH]c2ccccc12)C(=O)N[C@@H](CCSC)C(=O)N[C@@H](CC(=O)O)C(=O)N[C@@H](Cc1ccccc1)C(N)=O [Compound IX, β-Ala-Asp-Tyr(SO3 H)-Met-Gly-Trp-Met-Asp-Phe-NH2]	comparable activities with CCK-8	113	about half of that of CCK-8			
CSCC[C@H](NC(=O)[C@@H](N)Cc1c[nH]c2ccccc12)C(=O)N[C@@H](CC(=O)O)C(=O)N[C@@H](Cc1ccccc1)C(N)=O [Tetragastrin, reference compound]				1.0	1.0	
CSCC[C@H](NC(=O)[C@H](Cc1ccc(OS(=O)(=O)O)cc1)NC(=O)[C@H](CC(=O)O)NC(=O)CN)C(=O)NCC(=O)N[C@@H](Cc1c[nH]c2ccccc12)C(=O)N[C@@H](CCSC)C(=O)N[C@@H](CC(=O)O)C(=O)N[C@@H](Cc1ccccc1)C(N)=O [Compound VIII, Gly-Asp-Tyr(SO3 H)-Met-Gly-Trp-Met-Asp-Phe-NH2]	comparable activities with CCK-8	97	comparable to that of CCK-8			
Suc-Phe(NHSO3 H)-Met-Gly-Trp-Met-Asp-Phe-NH2 [Compound VII]	little activity		no active effect			< 1.0
CSCC[C@H](NC(=O)[C@H](Cc1c[nH]c2ccccc12)NC(=O)CNC(=O)[C@H](Cc1ccc(OS(=O)(=O)O)cc1)NC(=O)[C@H](C)NC(=O)[C@@H]1CCC(=O)N1)C(=O)N[C@@H](CC(=O)O)C(=O)N[C@@H](Cc1ccccc1)C(N)=O [Compound XI, pGlu-Ala-Tyr(SO3 H)-Gly-Trp-Met-Asp-Phe-NH2] ([pGlu]A[sY]GWMDF-NH2)				2.0	50.0	
CSCC[C@H](NC(=O)[C@H](Cc1ccc(OS(=O)(=O)O)cc1)NC(=O)CCC(=O)O)C(=O)NCC(=O)N[C@@H](Cc1c[nH]c2ccccc12)C(=O)N[C@@H](CCSC)C(=O)N[C@@H](CC(=O)O)C(N)=O [Compound II, Suc-Tyr(SO3 H)-Met-Gly-Trp-Met-Asp-NH2] (Suc-[sY]MGWMD-NH2)	no activity	0	no active effect			
CSCC[C@H](NC(=O)[C@H](Cc1ccc(OS(=O)(=O)O)cc1)NC(=O)[C@@H](N)CC(=O)O)C(=O)NCC(=O)N[C@@H](Cc1c[nH]c2ccccc12)C(=O)N[C@@H](CCSC)C(=O)N[C@@H](CC(=O)O)C(=O)N[C@@H](Cc1ccccc1)C(N)=O [CCK-8, Asp-Tyr(SO3 H)-Met-Gly-Trp-Met-Asp-Phe-NH2, reference compound]		100				
CSCC[C@H](NC(=O)[C@H](Cc1c[nH]c2ccccc12)NC(=O)[C@@H](Cc1c[nH]c2ccccc12)NC(=O)[C@H](CCSC)NC(=O)[C@H](Cc1ccc(OS(=O)(=O)O)cc1)NC(=O)CCCC(=O)O)C(=O)N[C@@H](CC(=O)O)C(=O)N[C@@H](Cc1ccccc1)C(N)=O [Compound V, Glt-Tyr(SO3 H)-Met-D-Trp-Trp-Met-Asp-Phe-NH2] (Glutaryl-[sY]M[dW]WMDF-NH2)	little activity	< 1.0	comparable to that of CCK-8			
CSCC[C@H](NC(=O)[C@H](Cc1c[nH]c2ccccc12)NC(=O)CNC(=O)[C@H](Cc1ccc(OS(=O)(=O)O)cc1)NC(=O)[C@H](C)NC(=O)CCCC(=O)O)C(=O)N[C@@H](CC(=O)O)C(=O)N[C@@H](Cc1ccccc1)C(N)=O [Compound X, Glt-Ala-Tyr(SO3 H)-Gly-Trp-Met-Asp-Phe-NH2] (Glutaryl-A[sY]GWMDF-NH2)				6.1	258.8	
CSCC[C@H](NC(=O)[C@H](Cc1c[nH]c2ccccc12)NC(=O)CNC(=O)[C@H](CCSC)NC(=O)[C@H](Cc1ccc(OS(=O)(=O)O)cc1)NC(=O)CCC(=O)O)C(N)=O [Compound I, Suc-Tyr(SO3 H)-Met-Gly-Trp-Met-NH2] (Suc-[sY]MGWM-NH2)	no activity	0	no active effect			
Suc-Tyr(SO3 H)-Met-D-Ala-Trp-Met-Asp-Phe-NH2 [Compound III]	mild					8.7
